Data: paper PMC5642474, “Pre-clinical pharmacology of AZD3965, a selective inhibitor of MCT1: DLBCL, NHL and Burkitt’s lymphoma anti-tumor activity” (Oncotarget, 2017)

Columns and labels:
MCT2 = molecular target: T1, MCT2 (Homo sapiens, UniProt O60669); settings: read-out: AZD3965
T1 construct: gene SLC16A7

MCT1 = molecular target: T2, MCT1 (Homo sapiens, UniProt P53985); test: SPA competition binding, […]-MCT1 ligand displacement on Jurkat cell membranes; also Ki […] on recombinant human MCT1 yeast membranes; settings: read-out: AZD3965
T2 construct: gene SLC16A1
T2 sequence (P53985 1-500): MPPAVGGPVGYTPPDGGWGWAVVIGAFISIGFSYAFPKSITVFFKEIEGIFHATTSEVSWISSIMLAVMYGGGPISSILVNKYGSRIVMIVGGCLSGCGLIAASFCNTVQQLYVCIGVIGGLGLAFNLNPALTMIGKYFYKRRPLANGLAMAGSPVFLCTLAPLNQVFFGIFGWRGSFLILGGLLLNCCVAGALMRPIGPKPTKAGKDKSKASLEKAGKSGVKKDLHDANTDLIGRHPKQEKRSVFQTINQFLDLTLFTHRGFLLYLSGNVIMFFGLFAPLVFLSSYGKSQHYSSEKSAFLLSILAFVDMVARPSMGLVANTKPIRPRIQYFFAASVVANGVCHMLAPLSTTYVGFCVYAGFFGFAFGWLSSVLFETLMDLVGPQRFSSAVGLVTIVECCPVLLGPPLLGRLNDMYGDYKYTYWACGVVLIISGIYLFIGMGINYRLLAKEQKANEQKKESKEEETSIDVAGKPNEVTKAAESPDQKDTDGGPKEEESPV

T1 sequence (O60669 whole entry): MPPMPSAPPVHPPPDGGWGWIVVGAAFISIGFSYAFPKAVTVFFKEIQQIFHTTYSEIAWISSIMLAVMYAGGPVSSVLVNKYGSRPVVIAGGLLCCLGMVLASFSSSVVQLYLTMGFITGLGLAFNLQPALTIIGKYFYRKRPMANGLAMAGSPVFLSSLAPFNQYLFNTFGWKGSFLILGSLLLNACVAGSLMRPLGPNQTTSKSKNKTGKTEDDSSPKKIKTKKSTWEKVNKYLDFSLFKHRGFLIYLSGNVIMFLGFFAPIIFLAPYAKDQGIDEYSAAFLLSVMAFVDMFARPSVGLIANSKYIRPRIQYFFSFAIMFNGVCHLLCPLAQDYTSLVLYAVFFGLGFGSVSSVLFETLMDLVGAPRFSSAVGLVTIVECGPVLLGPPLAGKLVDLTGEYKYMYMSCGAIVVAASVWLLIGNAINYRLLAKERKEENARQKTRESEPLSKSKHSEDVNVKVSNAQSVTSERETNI

Ki (MCT2): 20 nM | Ki (MCT1): 1.6 nM
SMILES: Cc1[nH]nc(C(F)(F)F)c1Cc1sc2c(c1C(=O)N1C[C@](C)(O)CO1)c(=O)n(C)c(=O)n2C(C)C [AZD3965]
